Data as given in patent US10550099B2 (FORMA Therapeutics, Inc., priority 2014, dated 2020).
Read-outs that look alike come from different tables or passages of the source.

Key:
[1] = biological target: IDH1-R132C recombinant protein (Homo sapiens (Human), UniProt O75874, R132C); experiment: IDH1-R132C enzymatic assay (diaphorase/resazurin readout of NADPH consumption); format: biochemical; details: IDH1-R132C enzyme; read-out: Enzyme IDH1 R132C IC50 (Range)
Protocol: (§1) Assays were performed in a 384-well black plate. An aliquot of 250 nL of compound was incubated with 10 μL of 30 nM IDH1-R132H or 10 nM IDH1-R132C recombinant protein in assay buffer (50 mM Tris pH=7.5, 150 mM NaCl, 5 mM MgCl2, 0.1% (w/v) Bovine Serum Albumin, and 0.01% Triton X-100) in each well at 25° C. for 15 minutes. After the plate was centrifuged briefly, an aliquot of 10 μL of 2 mM α-ketoglutarate and 20 μM NADPH solution prepared in assay buffer was then added to each well and the reaction was maintained at 25° C. for 45 minutes. An aliquot of 10 μL of diaphorase solution (0.15 U/mL diaphorase and 30 μM Resazurin in assay buffer) was added to each well. The plate was maintained at 25° C. for 15 minutes and then read on a plate reader with excitation and emission wavelengths at 535 nm and 590 nm, respectively. The IC50 of a given compound was calculated by fitting the dose response curve of inhibition of NADPH consumption at a given concentration with the four parameter logistic equation.

[2] = biological target: IDH1-R132H recombinant protein (Homo sapiens (Human), UniProt O75874, R132H); experiment: IDH1-R132H enzymatic assay (diaphorase/resazurin readout of NADPH consumption); format: biochemical; details: IDH1-R132H enzyme; read-out: Enzyme IDH1 R132H IC50 (Range)
IDH1-R132H recombinant protein, sequence (O75874 whole entry R132H): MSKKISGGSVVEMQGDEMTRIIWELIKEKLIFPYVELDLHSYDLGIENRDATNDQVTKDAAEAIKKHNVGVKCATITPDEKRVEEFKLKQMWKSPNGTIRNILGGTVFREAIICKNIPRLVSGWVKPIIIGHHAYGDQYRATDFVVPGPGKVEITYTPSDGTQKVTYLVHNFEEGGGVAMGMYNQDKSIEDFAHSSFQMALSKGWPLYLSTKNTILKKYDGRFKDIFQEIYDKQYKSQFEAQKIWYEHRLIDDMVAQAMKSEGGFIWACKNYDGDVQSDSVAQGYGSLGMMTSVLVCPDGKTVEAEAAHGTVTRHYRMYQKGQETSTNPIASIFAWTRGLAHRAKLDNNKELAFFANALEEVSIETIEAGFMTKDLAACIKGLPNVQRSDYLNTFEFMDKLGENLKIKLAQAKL
Protocol: as §1

[3] = tested on: HCT116 isogenic IDH1-R132H mutant cells; experiment: Cellular 2-HG assay using HCT116 mutant IDH1 cells (IDH1-R132H), RapidFire mass spectrometry; format: cell-based
Protocol: (§2) Example 106—Cellular 2-HG Assay Using HCT116 Mutant IDH1 Cells
(§3) HCT116 isogenic IDH1-R132H and IDH1-R132C mutant cells were cultured in growth media (McCoy's 5A, 10% fetal bovine serum, 1× antibiotic-antimycotic solution and 0.3 mg/mL G418) in 5% CO2 in an incubator at 37° C. To prepare the assay, cells were trypsinized and resuspended in assay media (McCoy's 5A with no L-glutamine, 10% fetal bovine serum, 1× antibiotic-antimycotic solution and 0.3 mg/mL G418). An aliquot of 10,000 cells/100 μL was transferred to each well of a clear 96-well tissue culture plate. The cells were incubated in 5% CO2 at 37° C. in an incubator overnight to allow for proper cell attachment. An aliquot of 50 μL of compound containing assay media were then added to each well and the assay plate was kept in 5% CO2 at 37° C. in an incubator for 24 hours. The media was then removed from each well and 150 μL of a methanol/water mixture (80/20 v/v) was added to each well. The plates were kept at −80° C. freezer overnight to allow for complete cell lysis. An aliquot of 125 μL of extracted supernatant was analyzed by RapidFire high-throughout-mass spectrometry (Agilent) to determine the cellular 2-HG level. The IC50 of a given compound was calculated by fitting the dose response curve of cellular 2-HG inhibition at a given concentration with the four parameter logistic equation.

[4] = tested on: HCT116 isogenic IDH1-R132C mutant cells; experiment: Cellular 2-HG assay using HCT116 mutant IDH1 cells (IDH1-R132C), RapidFire mass spectrometry; format: cell-based
Protocol: as §2, §3

[5] = Homo sapiens, HCT-116, read-out: HCT116 IDH1 R132H IC50 (Range)
[6] = Homo sapiens, HCT-116, read-out: HCT116 IDH1 R132C IC50 (Range)

IDH1-R132C recombinant protein, sequence (O75874 whole entry R132C): as the sequence (O75874 whole entry R132H) above, with H132C counted along it

IC50 [1]	IC50 [2]	IC50 [3, 5]	IC50 [4, 6]	Structure (SMILES)	IC50 ([3]; read-out: HCT116 IDH1 R132H IC50 (Range))	IC50 ([4]; read-out: HCT116 IDH1 R132C IC50 (Range))
1000 to 10000 nM	100 to 1000 nM	1000 to 10000 nM	100 to 1000 nM	Cc1[nH]ncc1-c1ccnc(N[C@@H](C)c2cc3cc(Cl)ccc3[nH]c2=O)n1 [I-83]	–	–
> 10000 nM	–	–	–	COC(=O)C(c1ccnc(N[C@@H](C)c2cc3cc(Cl)ccc3[nH]c2=O)n1)S(C)(=O)=O (stereo partly shown) [I-134]	–	–
100 to 1000 nM	100 to 1000 nM	100 to 1000 nM	100 to 1000 nM	CC(C)Cn1nccc1-c1ccnc(N[C@@H](C)c2cc3cc(Cl)ccc3[nH]c2=O)n1 [I-85]	–	–

Structure (SMILES)	IC50 [1]	IC50 [2]	IC50 [3, 5]	IC50 [4, 6]	IC50 ([3]; read-out: HCT116 IDH1 R132H IC50 (Range))	IC50 ([4]; read-out: HCT116 IDH1 R132C IC50 (Range))
COc1nc(N[C@H](C)c2nc3cc(Cl)ccc3[nH]c2=O)ncc1C#N [I-157]	1000 to 10000 nM	100 to 1000 nM	–	–	< 100 nM	100 to 1000 nM
